From PMC3045100, “Cell-Penetrating Penta-Peptides (CPP5s): Measurement of Cell Entry and Protein-Transduction Activity” (Pharmaceuticals, 2010) come the findings set out here.

Data set [1] concerns CHO K1 cells. Nature of the data set: Protection from staurosporine-induced apoptosis (Hoechst nuclear staining). In kind it is cell-based, Chinese hamster. Conditions: VPTLK 3 h pre-incubation, 100 nM STS for 3 and 6 h, Hoechst dye nuclear staining, triplicate samples. The procedure: (§1) Figure 3 Protection of cells from apoptosis by VPTLK. a-d. Proteoglycan is not required for VPTLK cell entry. Microscopic analysis of cell entry of Fam-VPTLK in Chinese Hamster Ovary (CHO) A745 cells lacking proteoglycans in the plasma membrane (a) and CHO K1 cells that express proteoglycans (b). CHO A745 and K1 cells were incubated with Fam-VPTLK (200 μM) for 3 h at 37 °C. […] Apoptosis was determined by using Hoechst dye nuclear staining. Each bar represents the mean of triplicate samples and standard error, and statistical significance was determined by an unpaired student t test; “ns”: not significant, *P < 0.05, and **P < 0.01. e. […] Jurkat cells were pre-incubated with VPTLK 200 μM for 3 h prior to STS treatment (100 nM, 3 or 6 h). Apoptosis was determined by Hoechst dye nuclear staining. Each bar represents the mean of triplicate samples and standard error, and statistical significance was determined by an unpaired student t test: **P < 0.01. f. […] Apoptosis was determined by Hoechst dye nuclear staining. […]
(§2) To induce Bax-mediated apoptosis in HeLa cells, cells were transfected with pEGFP-Bax (1 µg) and apoptosis was determined 24 h after the transfection. […] To detect apoptosis, cells were stained with Hoechst 33258 dye, and the numbers of cells with apoptotic nuclei were counted using fluorescence microscopy. Three-hundred cells were analyzed in triplicate samples. […]

Data set [2] relates to CHO A745 cells. The data set is described as above. In kind it is cell-based, Chinese hamster. The conditions noted are these: VPTLK 3 h pre-incubation, 100 nM STS for 3 and 6 h, Hoechst dye nuclear staining, triplicate samples. Here is the method:
as §1, §2

The test system of data set [3] is HeLa cells. Nature of the data set: Protection from etoposide-induced apoptosis (Hoechst nuclear staining). Format: cell-based. Conditions: 200 μM peptide 3 h pretreatment, etoposide 10 μM, 24 h, Hoechst dye nuclear staining, triplicate samples, P < 0.01. Here is the method:
as §1, §2

Data set [4] has as its target T1, Bax (Homo sapiens, UniProt Q07812).
T1 construct: expressed in transfected cells; host or cells: HeLa cells
Nature of the data set: Inhibition of Bax-induced apoptosis after pEGFP-Bax transfection. In kind it is cell-based. Conditions: 200 μM peptide 3 h before pEGFP-Bax plasmid transfection, apoptosis assayed 24 h after transfection, triplicate samples, P < 0.01. The procedure: as §1, §2

The subject of data set [5] is Jurkat cells. Description: Protection from staurosporine-induced apoptosis (Hoechst nuclear staining). In kind it is cell-based. Conditions: 200 μM peptide 3 h pre-incubation, STS 100 nM, 3 or 6 h, Hoechst dye nuclear staining, triplicate samples, P < 0.01. The procedure:
as §1, §2

Data set [6] concerns Primary cultured mouse embryonic fibroblast (MEF) cells. Nature of the data set: Cytotoxicity (apoptosis, Hoechst nuclear staining) of CPP5 and TAT. Format: cell-based. The procedure: List of cell-penetrating penta-peptides (CPP5s). […] Peptide sequences are color-coded to show the constant amphipathic amino acid arrangement in each CPP5. […] Fam was labeled on the N-terminus of all peptides examined. Cells were analyzed by FACS and/or microscopy. The activity of each peptide is shown as a percentage of the activity of KLPVM. Each value represents the mean of triplicate samples. Cell entry of some peptides was confirmed by microscopy only, and these peptides are indicated with a '+' without a percentage value. For cytoprotective activity (right column), the information is based on previous studies and the activity was determined by the protection of cells from Bax overexpression and other apoptotic stimuli such as etoposide treatment. b to e. Cell entry of Fam-labeled […], and poly-arginine (R8). […] Comparison of the cytotoxicity of CPP5 and TAT. Primary cultured mouse embryonic fibroblast (MEF) cells were treated with various concentrations of peptides for 24 h as indicated. Then, apoptosis was analyzed as described in Experimental Procedures. Each bar represents the mean of triplicate samples and standard error.

T1 sequence (Q07812 whole entry, species assumed): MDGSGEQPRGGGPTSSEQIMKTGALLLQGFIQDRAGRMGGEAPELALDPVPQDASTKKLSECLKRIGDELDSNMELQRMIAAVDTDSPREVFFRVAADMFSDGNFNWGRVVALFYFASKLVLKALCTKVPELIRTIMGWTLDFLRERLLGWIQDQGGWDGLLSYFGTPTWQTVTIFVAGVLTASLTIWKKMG

For the substance VPTLK, in data set [1], the “Protection from staurosporine treatment, CHO K1” value was “protected both cell lines”. Moreover, the “Protection from staurosporine treatment, CHO A745” value in data set [2] is given as “protected both cell lines”. Also, the “Protection from etoposide-induced apoptosis, HeLa” value in data set [3] is recorded as “protected HeLa cells from etoposide-induced apoptosis”. Moreover, in data set [4], the “Inhibition of Bax-induced apoptosis, HeLa” value is on record as “inhibited Bax-induced apoptosis in HeLa cells”. For the same substance, the “Protection from STS-induced apoptosis, Jurkat” value in data set [5] is recorded as “protected Jurkat cells from STS-induced apoptosis”. For the same substance, the “Cytotoxic effect at 1.6 mM in the cell culture medium” value in data set [6] is “did not show significant cytotoxic effects”.
